These results are taken from patent US20050039231A1, “Method for selecting transformed plant cells using ethionine and cystathionine gamma synthase as the selection agent and marker gene” (Rutgers, The State University, priority 1999, published 2005).

One assay concerns wild-type potato plants. Briefly: Effect of ethionine in the maintenance medium on growth of wild-type potato plants. The format is in vivo, Russet Burbank potato. The procedure: (§1) Inaba, et al. used 100 μM ethionine, the toxic analogue of methionine to select Arabidopsis thaliana mutants that overaccumulated methionine. We tested the effects of ethionine on the growth of transgenic potato plants by incorporating ethionine into the maintenance medium. Several concentrations of ethionine, 10, 25, 50, 100, 200, 300 μM were tested initially using wild-type potato plants.

Assay [1] deals with transgenic potato plants (CGS+). Briefly: Resistance to ethionine in CGS+ transgenic potato plants (growth on maintenance medium with ethionine). It counts as in vivo, Russet Burbank potato. The procedure:
as §1

The mark [2] stands for this setting: ethionine 10 μM in maintenance medium.

Regarding `CCSCC[C@H](N)C(=O)O` [ethionine], the “growth of wild-type potato plants” value with wild-type potato plants (setting [2]) is “growth of wild-type plants were inhibited”; in the assay with wild-type potato plants (ethionine 50 μM and higher (10, 25, 50, 100, 200, 300 μM tested) in maintenance medium) it was “total inhibition of growth”. Besides, the “growth of transgenic potato plants” value in assay [1] (setting [2]) is “continued to grow”; in assay [1] (ethionine 25 and 50 μM in maintenance medium) it was “only CGS4 and CGS8 had limited growth of roots”. Moreover, the “root initiation of transgenic potato plants” value in assay [1] (setting [2]) is reported as “all transgenic plants initiated roots in three days”.
